From patent publication US11180486B2, “Indolylkojyl methane analogues, process of preparation thereof and use as inhibitor of cancer cells invasion and metastasis” (Council of Scientific & Industrial Research, priority 2017, dated 2021)

Assays:
MCF7 cells = assay: Cell viability (MTT) assay; type: cell-based; settings: Homo sapiens, MCF7, 48 h, 44 h + 4 h, mean ± SD of three experiments, read-out: IC50 values MCF7
Method: (§1) Cell Culture and Reagents. The cell lines used in this study were procured from American Type Culture Collection (ATCC), Manassas, USA. MCF7, T47D and fR2 cells were cultured in RPMI-1640 medium, whereas the MDA-MB-231 cells were grown in Leibovitz's (L-15) medium supplemented with 10% fetal bovine serum (Gibco) and 1% penicillin/streptomycin (Sigma) in a humidified CO2 incubator (New Brunswick Galaxy 170 R) with 5% CO2. Reagents such as phenylmethylsulfonyl fluoride (PMSF), dithiothreitol (DTT), DMSO, crystal violet, and Bradford's reagent were purchased from Sigma-Aldrich. Protease inhibitor cocktail was procured from Roche. The antibodies for human GRP78, Par-4, MMP-2, MMP-9, NF-kB, E-cadherin and TIMP-1 were procured from Santa-Cruz Biotechnology. The β-actin antibody and the secondary antibodies such as anti-rabbit IgG and anti-mouse IgG were procured from Sigma-Aldrich.
(§2) Cell Viability Assay. The cell viability was determined by standard MTT assay method. Briefly, MDA-MB-231, MCF7, T47D and fR2 cells were seeded in 96 well tissue culture plates (Nunc) at a density of 3×10^3 cells per well and treated with varying concentrations of the test compounds in triplicates. DMSO was taken as a vehicle and the final concentration of the DMSO was maintained at 0.2% in the culture medium. Doxorubicin was employed as a positive control. After 44 h of incubation, MTT dye solution was added into the medium and cells were incubated for another 4 h at 37° C. in 5% CO2. The amount of coloured formazan derivatives formed was measured by taking optical density (OD) using a microplate reader (TECAN, Infinite M200 Pro) at 570 nm and the percentage cell viability was calculated. The IC50 values were calculated using GraphPad Prism software (Version 5.0). Table 2. Cytotoxicity (IC50) of all synthesized compounds of invention against panel of human breast cancer cell lines (MDA-MB-231, MCF7, T47D) and normal breast epithelial (fR2) cells.

MDA-MB-231 cells = assay: Cell viability (MTT) assay; type: cell-based; settings: Homo sapiens, MDA-MB-231, 48 h, 44 h + 4 h, mean ± SD of three experiments, read-out: IC50 values MDA-MB-231
Method: as §1, §2

T47D cells = assay: Cell viability (MTT) assay; type: cell-based; settings: Homo sapiens, 48 h, 44 h + 4 h, mean ± SD of three experiments
Method: as §1, §2

[1] = system: mouse mammary carcinoma (4T1) cells; type: in vivo; settings: 100 mg/kg b.w. i.p., alternate days for two weeks
Method: In Vivo Anti-Tumor and Anti-Metastatic Efficacy Studies. To evaluate the antitumor and antimetastatic effect of 5 in vivo, healthy female Balb/c mice (b.w. 18-23 g) were taken. The experimental protocols were approved by the Institutional Animal Ethics Committee, CPCSEA, of Indian Institute of Integrative Medicine, Jammu. The animals were maintained at 22° C. with a 12 h light-dark cycle and free access to feed and water inside the institutional animal house. Proper care was taken to maintain them in a healthy condition and to avoid any risk of possible pathogenic contaminations. For subcutaneous implantation, the mice were randomized into two groups of 5 mice per group and 1.5 million mouse mammary carcinoma (4T1) cells in serum free RPMI media were injected subcutaneously into the mammary fat pad of each mouse. Either 1 week after the tumor cell implantation or when the tumor volume reached ˜150 mm^3, mice were injected intraperitoneally with either normal saline (NS) or parent compound 1 (100 mg/kg, b.w.) or 5 (30 mg/kg, b.w.) in each alternate days for two weeks. Tumor size was recorded on each alternate days post-cell injection and body weights were recorded once per week. Mice were sacrificed on the 15th day of treatment initiation and tumors were incised for its measurement. Metastatic lung nodules were counted using a dissecting microscope. Lungs were then minced into fine pieces, suspended in medium containing collagenase and kept in 37° C. incubator with vigorous shaking for 2 h. The suspension was then filtered with the help of 70 μm cell strainer (BD, USA) to get the single cell suspension. Then, the suspension was serially diluted for 3-4 times in selection medium containing 6-thioguanine, for the selection of 4T1 cells. Each dilution containing the lung cell suspension was then plated into individual petridishes and incubated at 37° C. and 5% CO2 for the growing of 4T1 cell colonies. After 15 days of incubation, cells were washed with PBS, fixed with methanol and stained with 0.2% crystal violet solution for 1 h. Images of the 4T1 colonies were observed, counted and photographed under an inverted microscope at 20× magnification.

Row | SMILES | melting point | IC50 (MCF7 cells) | IC50 (MDA-MB-231 cells) | IC50 (T47D cells) | decrease in metastatic lung nodules [1] | inhibition in tumor growth ([1]; vs normal saline)
1 | CCCCCC(c1oc(CO)cc(=O)c1O)c1c[nH]c2ccccc12 (stereo not shown) [Compound 3, 2-{1-(1H-indol-3-yl)hexyll}-3-hydroxy-6-(hydroxymethyl)-4H-pyran-4-one] | 120 to 130 °C | > 100 µM | 40.6 ± 0.621 µM | 43.5 ± 0.203 µM | – | –
2 | CCCC(c1oc(CO)cc(=O)c1O)c1c[nH]c2ccccc12 (stereo not shown) [Compound 2, 2-(1-(1H-indol-3-yl)butyl)-3-hydroxy-6-(hydroxymethyl)-4H-pyran-4-one] | 130 to 140 °C | 45.2 ± 0.348 µM | 43.25 ± 0.416 µM | 43 ± 0.144 µM | – | –
3 | CCCCCCCCCCCCCCCC(c1oc(CO)cc(=O)c1O)c1c[nH]c2ccccc12 (stereo not shown) [Compound 9, 2-{1-(1H-indol-3-yl)hexadecyl}-3-hydroxy-6-(hydroxymethyl)-4H-pyran-4-one] | 95 to 105 °C | > 100 µM | 45.7 ± 0.195 µM | > 100 µM | – | –
4 | O=c1cc(CO)occ1O [Compound 1, 5-Hydroxy-2-(hydroxymethyl)-4H-pyran-4-one, reference compound] | – | 94.5 ± 2.68 µM | 87.2 ± 1.52 µM | > 100 µM | 16.7% | 23%
5 | COc1cccc2c1C(=O)c1c(O)c3c(c(O)c1C2=O)C[C@@](O)(C(=O)CO)C[C@@H]3O[C@H]1C[C@H](N)[C@H](O)[C@H](C)O1 [DOXO, doxorubicin, reference compound] | – | 0.085 ± 0.125 µM | 0.22 ± 0.185 µM | 0.081 ± 0.211 µM | – | –

Further lines, with some results ahead:

Row | melting point | IC50 (MCF7 cells) | IC50 (MDA-MB-231 cells) | IC50 (T47D cells) | SMILES | decrease in metastatic lung nodules [1] | inhibition in tumor growth ([1]; vs normal saline)
6 | 110 to 120 °C | > 100 µM | 40.6 ± 0.621 µM | > 100 µM | CCCCCCCCCC(c1oc(CO)cc(=O)c1O)c1c[nH]c2ccccc12 (stereo not shown) [Compound 6] | – | –
7 | 105 to 115 °C | > 100 µM | 45.2 ± 0.535 µM | > 100 µM | CCCCCCCCCCCC(c1oc(CO)cc(=O)c1O)c1c[nH]c2ccccc12 (stereo not shown) [Compound 8, 2-{1-(1H-indol-3-yl)dodecyl}-3-hydroxy-6-(hydroxymethyl)-4H-pyran-4-one] | – | –
8 | 110 to 120 °C | > 100 µM | 49.5 ± 0.448 µM | > 100 µM | CCCCCCCCCCC(c1oc(CO)cc(=O)c1O)c1c[nH]c2ccccc12 (stereo not shown) [Compound 7, 2-{1-(1H-indol-3-yl)undecyl}-3-hydroxy-6-(hydroxymethyl)-4H-pyran-4-one] | – | –
9 | 115 to 125 °C | 3.93 ± 0.288 µM | 3.84 ± 0.055 µM | 4.3 ± 0.443 µM | CCCCCCC(c1oc(CO)cc(=O)c1O)c1c[nH]c2ccccc12 (stereo not shown) [Compound 4, 2-(1-(1H-indol-3-yl)heptyl)-3-hydroxy-6-(hydroxymethyl)-4H-pyran-4-one] | – | –
10 | 90 to 100 °C | > 100 µM | 48.5 ± 0.341 µM | > 100 µM | CCCCCCCCCCCCCCCCCC(c1oc(CO)cc(=O)c1O)c1c[nH]c2ccccc12 (stereo not shown) [Compound 10, 2-{1-(1H-indol-3-yl)octadecyl}-3-hydroxy-6-(hydroxymethyl)-4H-pyran-4-one] | – | –
